Results reported in patent US9353075B2, “Disubstituted beta-lactones as inhibitors of N-acylethanolamine acid amidase (NAAA)” (The Regents of the University of California, priority 2011, dated 2016).
Entries after “also recorded” stand apart in the source; their conditions may differ. Like-named read-outs stand apart in the source and are kept apart here.

Tests used:
[1] = test system: carrageenan-induced paw edema and hyperalgesia; experiment: Carrageenan-induced inflammatory responses in mice; assay type: in vivo, mouse
Method: The Methods include the following: Carragenan (1%) was injected into the left hind paw of Swiss albino mice. Paw edema was measured using a plethysmomether. Cutaneous hyperalgesia (thermal) was assesed by the plantar test (see Hargreaves K, et a 1 (1988), Pain 32: 77-88). Compound 6 was administered topically.

r-NAAA = r-NAAA (Rattus norvegicus (Rat), UniProt Q5KTC7); experiment: r-NAAA inhibition, rat lung lysosomal NAAA preparation, UPLC/MS; assay type: biochemical
r-NAAA, sequence (Q5KTC7 34-362): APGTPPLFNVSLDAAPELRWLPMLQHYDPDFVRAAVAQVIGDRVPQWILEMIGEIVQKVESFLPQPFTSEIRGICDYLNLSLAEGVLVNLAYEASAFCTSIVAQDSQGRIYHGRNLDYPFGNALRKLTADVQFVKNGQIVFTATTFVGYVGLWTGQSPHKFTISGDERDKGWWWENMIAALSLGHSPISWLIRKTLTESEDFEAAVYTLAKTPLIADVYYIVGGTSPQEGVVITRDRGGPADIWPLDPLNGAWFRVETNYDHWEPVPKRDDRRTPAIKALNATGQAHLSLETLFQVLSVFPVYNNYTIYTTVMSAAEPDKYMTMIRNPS
Outline: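 Substrate was 50 μM heptadecenoylethanolamide, incubated 30 min at 37 °C after a 30 min compound preincubation at pH 4.5 with 1% Triton-X and 3 mM DTT. The enzyme source was rat lung lysosomal preparation. IC50 came from curve fitting of reduced heptadecenoic acid product, measured by negative-mode UPLC/MS versus vehicle.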

[2] = test system: IL-4, IL-5, IFN-g, and IgE blood levels; experiment: Immune response in DNFB-induced dermatitis; assay type: in vivo, mouse; details: mice, topical
Method: The methods include the following. Dermatitis in mice was induced with 2-4 Dinitrofluorobenzene (DNFB) as previously described. IL-4, IL-5, IFN-g, and IgE blood levels were determined by immunoassays. The effect of compound 6 was tested using a single treatment protocol.

[3] = test system: skin integrity (ear thickness, histopathology); details: in vivo
Method: The methods included the following. Drug or vehicle were given topical to both ears of CD1 mice for 14 days. Ear thickness was determined by using a micrometer. Histopathological analyses were conducted on formalin-fixed, paraffin-embedded ear sections […] thick and stained with Hematoxylin-Eosin. Epidermal thickness was measured with standard morphometric methods from 12 different samplings spanning the treated area of each ear. Data were analysed by ANOVA followed by Bonferroni's test for multiple comparisons.

UVB-induced inflammation = experiment: UV-B irradiation model in rats, plantar test; assay type: in vivo, rat
Method: Male Sprague Dawley rats (150-175 g, Charles River, Calco, Italy) were anaesthetized with a mixture of Tiletamine (15 mg/Kg) and Zolazepam (15 mg/Kg) administered in a single intra-peritoneal injection. Rats were then placed on their backs and shrouded in a UV opaque material with only the relevant surface of the plantar right hind paw exposed, perpendicular to the narrowband UVB light source situated above the level of the limb. The UVB source used for all experiments consisted of a bank of four TL01 fluorescent tubes (Philips, UK, λmax=312 nm) spaced 2.5 cm apart producing an even field of irradiation. The irradiance produced by the bulbs during each irradiation was determinate at the distance of the limb from the light source using a calibrate meter (I[…] with SEL240/UVB-1/TD filter, ABLE Instruments & Controls Ltd, UK). From this, the doses of UVB to which the rats were exposed were calculated. After plantar irradiation, nociceptive withdrawal responses to both thermal and mechanical stimuli were tested. Heat hypersensitivity was assessed using the rat plantar test equipment (Ugo Basile, Italy) following the method described by Hargreaves et al. (1988). […] Uninjured paw was always assessed first. […] The withdrawal threshold is calculated as the average of three consecutive tests with at list 5 minutes between each test. […]

[4] = compound 6 30% topical, antagonists 1 μg/paw intraplantar

## C[C@@H]1OC(=O)[C@@H]1NC(=O)OCCCCCc1ccccc1 [Example 6, 5-phenylpentyl-[(2S,3R)-2-methyl-4-oxooxetan-3-yl]-carbamate]
[1]; [4]
  Anti-inflammatory effect on cutaneous hyperalgesia with receptor antagonists: blocked by PPAR-α antagonists, but not by CB1 or CB2 receptor antagonists
  Anti-inflammatory effect on paw edema with receptor antagonists: blocked by PPAR-α antagonists, but not by CB1 or CB2 cannabinoid receptor antagonists
[1]; mice, topical
  Carrageenan-induced paw edema: marked anti-inflammatory
[1]; mice, topical, 90 min after carrageenan
  Carrageenan-induced hyperalgesia: dose-dependently reduces carrageenan-induced hyperalgesia; also recorded: anti-hyperalgesic effects
[1]; topical, 90 min after carrageenan
  Anti-inflammatory effects on paw edema and cutaneous hyperalgesia in mice lacking PPAR-α: absent in mice lacking PPAR-α
r-NAAA
  IC50: 50 nM
[2]
  Dose range of full efficacy on immune response, single administration: 1 to 30%
  Effect on immune response compared with steroids: superior to that of steroids
  Immunological responses in DNFB dermatitis: normalizes compromised immunological responses
[2]; single dosing
  DNFB-induced IFN-γ decrease: reverses DNFB-induced IFN-γ decrease
  DNFB-induced IL-4 increase: reverses DNFB-induced IL-4 increase
  DNFB-induced IL-5 increase: reverses DNFB-induced IL-5 increase
  DNFB-induced IgE increase: reverses DNFB-induced IgE increase
[3]; CD1, mouse, 14 days
  Cellular architecture, histopathological and morphometric analysis: but not compound 6, altered cellular architecture
  Skin atrophy (decrease of ear thickness): but not compound 6, causes skin atrophy
[3]; mouse
  Cellular architecture, histopathological and morphometric analysis: no alterations of cellular structure
  Skin atrophy (decrease of ear thickness): did not affect skin integrity
UVB-induced inflammation; 10 and 30% w/w, vs vehicle
  Thermal hyperalgesia induced by irradiation with 250 mJ/cm^2 of UVB: significantly reduced
UVB-induced inflammation; topical suspension in vaseline oil plus 5% lauric acid
  UVB-induced inflammation: dose-dependently reduced the UVB-induced inflammation
